Test results: paper PMC5664251, “Synthesis and Cytotoxic Evaluation of Steroidal Copper (Cu (II)) Complexes” (Bioinorganic Chemistry and Applications, 2017)
pIC50: −log10 of the molar value.

Tests used:
Type in all cases: cell-based
[1] = MTT cytotoxicity assay, 293T normal cells; conditions: human, HEK-293T normal kidney epithelial cells, mean of three independent determinations
Protocol: (§1) Melting points were determined on an X4 apparatus (Beijing Tech Instrument Co. Ltd., Beijing, China) and were uncorrected. The ^1H and ^13C NMR spectra were recorded in CDCl3 on a Bruker AV-600 spectrometer at working frequencies of 600 and 150 MHz and a Bruker AV-300 spectrometer at working frequencies of 300 and 75 MHz, respectively. Chemical shifts are expressed in parts per million (δ) values and coupling constants (J) in Hertz. Infrared spectra were measured with a Thermo Scientific Nicolet IS-10 Spectrophotometer (Thermo Scientific, USA). HREIMS was measured on an Agilent 6210 TOFMS instrument (Agilent Technologies, USA). The cell proliferation assay was undertaken by a MTT method using 96-well plates on a […] MK3 analysis spectrometer (Thermo Scientific, Shanghai, China).
(§2) The detailed procedure had been reported in our previous work.

[2] = test system: Bel-7404 (human liver carcinoma); experiment: MTT antiproliferative/cytotoxicity assay, Bel-7404; conditions: mean of three independent determinations
Protocol: as §1, §2

[3] = test system: HeLa (human cervical carcinoma); experiment: MTT antiproliferative/cytotoxicity assay, HeLa; conditions: mean of three independent determinations
Protocol: as §1, §2

SMILES | pIC50 [1] | pIC50 [2] | pIC50 [3]
CC(=O)Oc1ccc2c(c1)CCC1C2CCC2(C)C(=NNC(N)=S)CCC12 (centres unmarked) [Compound 2] | < 3.70 | < 3.70 | 4.38
CC12CCC3c4ccc(O)cc4CCC3C1CCC2=NNC(N)=S (centres unmarked) [Compound 1] | – | 4.72 | 4.47
